Measurements as given in patent US10556888B2, “Pyrazole compounds or salts thereof, preparation methods therefor, herbicidal compositions and use thereof” (QINGDAO KINGAGROOT CHEMICAL COMPOUNDS CO., LTD, priority 2015, dated 2020).

What was measured:
[1] = tested on: main crop (wheat, corn, rice, soybean, cotton, oilseed, millet and sorghum); experiment: Post-emergence test experiment, main crops (Table 2); format: in vivo; design: key: Level 10: completely dead; Level 9: above 90% growth inhibition rate; Level 8: above 80% growth inhibition rate; Level 7: above 70% growth inhibition rate; Level 6: above 60% growth inhibition rate; Level 5: above 50% growth inhibition rate; Level 4: above 30% growth inhibition rate; Level 3: above 20% growth inhibition rate; Level 2: above 10% growth inhibition rate; Level 1: above 1-10% growth inhibition rate; Level 0: no effect; settings: 3 weeks after spraying, greenhouse
How it was run: (§1)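 Compounds, dissolved in acetone, mixed with Tween 80 and diluted in water, were sprayed post-emergence onto greenhouse-grown weeds and crops at the 2-3 leaf stage (2-3 weeks post-sowing). Plants then grown 3 more weeks in the greenhouse before evaluation.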

[2] = tested on: Monocotyledonous and dicotyledonous weed; experiment: Post-emergence test experiment, weed control effect (Table 2); format: in vivo; design: key to weed control effect, Setaria viridis (level) / weed control effect, Rorippa indica (level) / weed control effect, Abutilon theophrasti (level) / weed control effect, Echinochloa crus-galli (level) / weed control effect, Digitaria sanguinalis (level): Level 10: completely dead; Level 9: above 90% growth inhibition rate; Level 8: above 80% growth inhibition rate; Level 7: above 70% growth inhibition rate; Level 6: above 60% growth inhibition rate; Level 5: above 50% growth inhibition rate; Level 4: above 30% growth inhibition rate; Level 3: above 20% growth inhibition rate; Level 2: above 10% growth inhibition rate; Level 1: above 1-10% growth inhibition rate; Level 0: no effect; settings: 3 weeks after spraying, greenhouse
How it was run: as §1

COCCCOCc1c(S(C)(=O)=O)ccc(C(=O)c2cnn(C)c2OC(=O)c2cnn(C)c2)c1Cl [Compound 62]
effect on crop, corn (level) ([1]; 30 g/ha): 0
effect on crop, rice (level) ([1]; 30 g/ha): 3 (Level 3: above 20% growth inhibition rate)
effect on crop, wheat (level) ([1]; 30 g/ha): 0
weed control effect, Abutilon theophrasti (level) ([2]; 30 g/ha): 7 (Level 7: above 70% growth inhibition rate)
weed control effect, Bidens pilosa (level) ([2]; 30 g/ha): 7 (Level 7: above 70% growth inhibition rate)
weed control effect, Digitaria sanguinalis (level) ([2]; 30 g/ha): 7 (Level 7: above 70% growth inhibition rate)
weed control effect, Echinochloa crus-galli (level) ([2]; 30 g/ha): 10
weed control effect, Rorippa indica (level) ([2]; 30 g/ha): 10
weed control effect, Setaria viridis (level) ([2]; 30 g/ha): 7 (Level 7: above 70% growth inhibition rate)

CCc1nn(C)c(C(=O)Oc2c(C(=O)c3ccc(S(C)(=O)=O)c(COCC(F)(F)F)c3Cl)cnn2C)c1Cl [Compound 105]
effect on crop, corn (level) ([1]; 60 g/ha): 0
effect on crop, rice (level) ([1]; 60 g/ha): 4 (Level 4: above 30% growth inhibition rate)
effect on crop, wheat (level) ([1]; 60 g/ha): 0
weed control effect, Abutilon theophrasti (level) ([2]; 60 g/ha): 10
weed control effect, Bidens pilosa (level) ([2]; 60 g/ha): 8 (Level 8: above 80% growth inhibition rate)
weed control effect, Digitaria sanguinalis (level) ([2]; 60 g/ha): 9 (Level 9: above 90% growth inhibition rate)
weed control effect, Echinochloa crus-galli (level) ([2]; 60 g/ha): 10
weed control effect, Rorippa indica (level) ([2]; 60 g/ha): 10
weed control effect, Setaria viridis (level) ([2]; 60 g/ha): 10

CCOCc1c(S(C)(=O)=O)ccc(C(=O)c2c(C3CC3)nn(C)c2OC(=O)c2cnn(C)c2)c1Cl [Compound 70]
effect on crop, corn (level) ([1]; 30 g/ha): 3 (Level 3: above 20% growth inhibition rate)
effect on crop, rice (level) ([1]; 30 g/ha): 3 (Level 3: above 20% growth inhibition rate)
effect on crop, wheat (level) ([1]; 30 g/ha): 0
weed control effect, Abutilon theophrasti (level) ([2]; 30 g/ha): 7 (Level 7: above 70% growth inhibition rate)
weed control effect, Bidens pilosa (level) ([2]; 30 g/ha): 7 (Level 7: above 70% growth inhibition rate)
weed control effect, Digitaria sanguinalis (level) ([2]; 30 g/ha): 10
weed control effect, Echinochloa crus-galli (level) ([2]; 30 g/ha): 10
weed control effect, Rorippa indica (level) ([2]; 30 g/ha): 10
weed control effect, Setaria viridis (level) ([2]; 30 g/ha): 10

Cc1cnn(Cc2c(S(C)(=O)=O)ccc(C(=O)c3cnn(C(C)C)c3OC(=O)c3cn(C)nc3C)c2Cl)c1 [Compound 97]
effect on crop, corn (level) ([1]; 120 g/ha): 0
effect on crop, rice (level) ([1]; 120 g/ha): 0
effect on crop, wheat (level) ([1]; 120 g/ha): 0
weed control effect, Abutilon theophrasti (level) ([2]; 120 g/ha): 6 (Level 6: above 60% growth inhibition rate)
weed control effect, Bidens pilosa (level) ([2]; 120 g/ha): 6 (Level 6: above 60% growth inhibition rate)
weed control effect, Digitaria sanguinalis (level) ([2]; 120 g/ha): 1 (Level 1: above 1-10% growth inhibition rate)
weed control effect, Echinochloa crus-galli (level) ([2]; 120 g/ha): 10
weed control effect, Rorippa indica (level) ([2]; 120 g/ha): 4 (Level 4: above 30% growth inhibition rate)
weed control effect, Setaria viridis (level) ([2]; 120 g/ha): 3 (Level 3: above 20% growth inhibition rate)

Cc1nn(C)cc1C(=O)Oc1c(C(=O)c2ccc(S(C)(=O)=O)c(COCC3CCCO3)c2Cl)c(C)nn1C(C)C (stereo not drawn) [Compound 101]
effect on crop, corn (level) ([1]; 250 g/ha): 1 (Level 1: above 1-10% growth inhibition rate)
effect on crop, rice (level) ([1]; 250 g/ha): 8 (Level 8: above 80% growth inhibition rate)
effect on crop, wheat (level) ([1]; 250 g/ha): 0
weed control effect, Abutilon theophrasti (level) ([2]; 250 g/ha): 7 (Level 7: above 70% growth inhibition rate)
weed control effect, Bidens pilosa (level) ([2]; 250 g/ha): 7 (Level 7: above 70% growth inhibition rate)
weed control effect, Digitaria sanguinalis (level) ([2]; 250 g/ha): 6 (Level 6: above 60% growth inhibition rate)
weed control effect, Echinochloa crus-galli (level) ([2]; 250 g/ha): 9 (Level 9: above 90% growth inhibition rate)
weed control effect, Rorippa indica (level) ([2]; 250 g/ha): 10
weed control effect, Setaria viridis (level) ([2]; 250 g/ha): 7 (Level 7: above 70% growth inhibition rate)

C#CCOCc1c(S(C)(=O)=O)ccc(C(=O)c2cnn(C)c2OC(=O)c2cnn(C)c2OCC)c1Cl [Compound 58]
effect on crop, corn (level) ([1]; 30 g/ha): 0
effect on crop, rice (level) ([1]; 30 g/ha): 3 (Level 3: above 20% growth inhibition rate)
effect on crop, wheat (level) ([1]; 30 g/ha): 0
weed control effect, Abutilon theophrasti (level) ([2]; 30 g/ha): 7 (Level 7: above 70% growth inhibition rate)
weed control effect, Bidens pilosa (level) ([2]; 30 g/ha): 7 (Level 7: above 70% growth inhibition rate)
weed control effect, Digitaria sanguinalis (level) ([2]; 30 g/ha): 7 (Level 7: above 70% growth inhibition rate)
weed control effect, Echinochloa crus-galli (level) ([2]; 30 g/ha): 10
weed control effect, Rorippa indica (level) ([2]; 30 g/ha): 10
weed control effect, Setaria viridis (level) ([2]; 30 g/ha): 9 (Level 9: above 90% growth inhibition rate)

CC=CCOCc1c(S(C)(=O)=O)ccc(C(=O)c2c(C)nn(C)c2OC(=O)c2cn(C)nc2C)c1Cl [Compound 38]
effect on crop, corn (level) ([1]; 60 g/ha): 0
effect on crop, rice (level) ([1]; 60 g/ha): 1 (Level 1: above 1-10% growth inhibition rate)
effect on crop, wheat (level) ([1]; 60 g/ha): 0
weed control effect, Abutilon theophrasti (level) ([2]; 60 g/ha): 10
weed control effect, Bidens pilosa (level) ([2]; 60 g/ha): 8 (Level 8: above 80% growth inhibition rate)
weed control effect, Digitaria sanguinalis (level) ([2]; 60 g/ha): 8 (Level 8: above 80% growth inhibition rate)
weed control effect, Echinochloa crus-galli (level) ([2]; 60 g/ha): 8 (Level 8: above 80% growth inhibition rate)
weed control effect, Rorippa indica (level) ([2]; 60 g/ha): 10
weed control effect, Setaria viridis (level) ([2]; 60 g/ha): 10

Cc1nn(C)cc1C(=O)Oc1c(C(=O)c2ccc(S(C)(=O)=O)c(COCC(F)F)c2Cl)c(C)nn1C [Compound 25]
effect on crop, corn (level) ([1]; 30 g/ha): 0
effect on crop, rice (level) ([1]; 30 g/ha): 6 (Level 6: above 60% growth inhibition rate)
effect on crop, wheat (level) ([1]; 30 g/ha): 0
weed control effect, Abutilon theophrasti (level) ([2]; 30 g/ha): 7 (Level 7: above 70% growth inhibition rate)
weed control effect, Bidens pilosa (level) ([2]; 30 g/ha): 7 (Level 7: above 70% growth inhibition rate)
weed control effect, Digitaria sanguinalis (level) ([2]; 30 g/ha): 10
weed control effect, Echinochloa crus-galli (level) ([2]; 30 g/ha): 10
weed control effect, Rorippa indica (level) ([2]; 30 g/ha): 5 (Level 5: above 50% growth inhibition rate)
weed control effect, Setaria viridis (level) ([2]; 30 g/ha): 9 (Level 9: above 90% growth inhibition rate)

Cc1nn(C)cc1C(=O)Oc1c(C(=O)c2ccc(S(C)(=O)=O)c(Cn3cccn3)c2Cl)cnn1C [Compound 08]
effect on crop, corn (level) ([1]; 60 g/ha): 1 (Level 1: above 1-10% growth inhibition rate)
effect on crop, rice (level) ([1]; 60 g/ha): 1 (Level 1: above 1-10% growth inhibition rate)
effect on crop, wheat (level) ([1]; 60 g/ha): 1 (Level 1: above 1-10% growth inhibition rate)
weed control effect, Abutilon theophrasti (level) ([2]; 60 g/ha): 10
weed control effect, Bidens pilosa (level) ([2]; 60 g/ha): 8 (Level 8: above 80% growth inhibition rate)
weed control effect, Digitaria sanguinalis (level) ([2]; 60 g/ha): 7 (Level 7: above 70% growth inhibition rate)
weed control effect, Echinochloa crus-galli (level) ([2]; 60 g/ha): 9 (Level 9: above 90% growth inhibition rate)
weed control effect, Rorippa indica (level) ([2]; 60 g/ha): 10
weed control effect, Setaria viridis (level) ([2]; 60 g/ha): 7 (Level 7: above 70% growth inhibition rate)

CCOc1c(C(=O)Oc2c(C(=O)c3ccc(S(C)(=O)=O)c(Cn4cc(C)cn4)c3C)c(C3CC3)nn2C)cnn1C [Compound 81]
effect on crop, corn (level) ([1]; 120 g/ha): 0
effect on crop, rice (level) ([1]; 120 g/ha): 0
effect on crop, wheat (level) ([1]; 120 g/ha): 0
weed control effect, Abutilon theophrasti (level) ([2]; 120 g/ha): 6 (Level 6: above 60% growth inhibition rate)
weed control effect, Bidens pilosa (level) ([2]; 120 g/ha): 6 (Level 6: above 60% growth inhibition rate)
weed control effect, Digitaria sanguinalis (level) ([2]; 120 g/ha): 1 (Level 1: above 1-10% growth inhibition rate)
weed control effect, Echinochloa crus-galli (level) ([2]; 120 g/ha): 10
weed control effect, Rorippa indica (level) ([2]; 120 g/ha): 4 (Level 4: above 30% growth inhibition rate)
weed control effect, Setaria viridis (level) ([2]; 120 g/ha): 3 (Level 3: above 20% growth inhibition rate)

CCn1nc(C2CC2)c(C(=O)c2ccc(S(C)(=O)=O)c(Cn3cc(C)cn3)c2Cl)c1OC(=O)c1cnn(C)c1 [Compound 91]
effect on crop, corn (level) ([1]; 120 g/ha): 0
effect on crop, rice (level) ([1]; 120 g/ha): 0
effect on crop, wheat (level) ([1]; 120 g/ha): 0
weed control effect, Abutilon theophrasti (level) ([2]; 120 g/ha): 6 (Level 6: above 60% growth inhibition rate)
weed control effect, Bidens pilosa (level) ([2]; 120 g/ha): 6 (Level 6: above 60% growth inhibition rate)
weed control effect, Digitaria sanguinalis (level) ([2]; 120 g/ha): 1 (Level 1: above 1-10% growth inhibition rate)
weed control effect, Echinochloa crus-galli (level) ([2]; 120 g/ha): 10
weed control effect, Rorippa indica (level) ([2]; 120 g/ha): 4 (Level 4: above 30% growth inhibition rate)
weed control effect, Setaria viridis (level) ([2]; 120 g/ha): 3 (Level 3: above 20% growth inhibition rate)

Cn1cc(C(=O)Oc2c(C(=O)c3ccc(S(C)(=O)=O)c(COCC(F)(F)C(F)F)c3Cl)c(C3CC3)nn2C)cn1 [Compound 71]
effect on crop, corn (level) ([1]; 30 g/ha): 0
effect on crop, rice (level) ([1]; 30 g/ha): 3 (Level 3: above 20% growth inhibition rate)
effect on crop, wheat (level) ([1]; 30 g/ha): 0
weed control effect, Abutilon theophrasti (level) ([2]; 30 g/ha): 6 (Level 6: above 60% growth inhibition rate)
weed control effect, Bidens pilosa (level) ([2]; 30 g/ha): 8 (Level 8: above 80% growth inhibition rate)
weed control effect, Digitaria sanguinalis (level) ([2]; 30 g/ha): 7 (Level 7: above 70% growth inhibition rate)
weed control effect, Echinochloa crus-galli (level) ([2]; 30 g/ha): 8 (Level 8: above 80% growth inhibition rate)
weed control effect, Rorippa indica (level) ([2]; 30 g/ha): 10
weed control effect, Setaria viridis (level) ([2]; 30 g/ha): 5 (Level 5: above 50% growth inhibition rate)

CCOCCOCc1c(S(C)(=O)=O)ccc(C(=O)c2c(C3CC3)nn(CC)c2OC(=O)c2cnn(C)c2OCC)c1C [Compound 86]
effect on crop, corn (level) ([1]; 30 g/ha): 0
effect on crop, rice (level) ([1]; 30 g/ha): 3 (Level 3: above 20% growth inhibition rate)
effect on crop, wheat (level) ([1]; 30 g/ha): 0
weed control effect, Abutilon theophrasti (level) ([2]; 30 g/ha): 6 (Level 6: above 60% growth inhibition rate)
weed control effect, Bidens pilosa (level) ([2]; 30 g/ha): 7 (Level 7: above 70% growth inhibition rate)
weed control effect, Digitaria sanguinalis (level) ([2]; 30 g/ha): 8 (Level 8: above 80% growth inhibition rate)
weed control effect, Echinochloa crus-galli (level) ([2]; 30 g/ha): 8 (Level 8: above 80% growth inhibition rate)
weed control effect, Rorippa indica (level) ([2]; 30 g/ha): 10
weed control effect, Setaria viridis (level) ([2]; 30 g/ha): 8 (Level 8: above 80% growth inhibition rate)
